In patent US20230263749A1, “COMPOSITIONS AND METHODS FOR IMPROVING NEUROLOGICAL DISEASES AND DISORDERS” (CuraSen Therapeutics, Inc., priority 2020, published 2023):
“Also recorded” adds a separate entry of the source.

What was measured:
Format in all cases: in vivo, human
[1] = system: subjects; test: Visual verbal learning test (VVLT); conditions: crossover study, Part A
Method: Subjects are presented 30 words on a screen, one at a time, for 1 second with a 1-second interval between words over a total of 1 minute. This is repeated in 3 trials. After each trial, subjects are asked to recall as many words as they can. After the third trial, there is a delay of 2.5 hours and subjects are then tested once for delayed recall. […] Since this was a crossover study, everyone who completed Part A was dosed with the 3 agents plus placebo.

[2] = system: healthy subjects; test: Heart rate by triplicate ECG after Compound 03-5 with or without nadolol pre-administration
Method: Heart rate was measured by triplicate ECG recordings. Data are presented as means changes from time-matched measures recorded on the day before the first dose of study drug (Day −1).
Healthy volunteers were be enrolled into 2 cohorts in a study to undertake within-subject dose titration of Compound 03-5 and/or nadolol in order to explore doses/dose combinations that mitigate peripheral effects of Compound 03-5, e.g. on heart rate, while preserving possible central effects of Compound 03-5 on cerebral perfusion and pupillary light reflex.
Cohort D1 enrolled 8 healthy subjects and undertook an evaluation of the effects of treatment on ECG following repeat dosing of Compound 03-5 in the presence of escalating doses of nadolol according to following schematic.
Eight healthy subjects aged 18-50 years were enrolled into Cohort D1 and received escalating doses of Compound 03-5 (3-12 mg) administered once daily 2 hours follow pre-administration of nadolol (1-40 mg). On all dosing days, study drug(s) were administered orally after an overnight fast of at least 8 hours.
(§1) Routine measures of ECG, vital signs, safety labs, physical exams and plasma sample collections for analysis of drug pharmacokinetics (PK) were undertaken according to the Schedule of Events (Table 1).
(§2) In Cohort D2, 8 healthy volunteers aged 55-75 years were admitted on Day −1 for a 5-day confinement period at the research facility. During this confinement, subjects received escalating doses of open label Compound 03-5 (1-10 mg) once-daily from Day 1 through Day 3 2 hours after pre-administration of open-label nadolol (3 mg) one each for the 3 dosing days according to the following schematic. Subjects remained in-residency until all study procedures are completed on Day 4.

[3] = system: healthy volunteers aged 55-75 years; test: CANTAB cognition battery, Cohort D2; conditions: Compound 03-5 1, 3 and 10 mg once daily, 2 h after 3 mg nadolol, change from within-day pre-dose
Method: CANTAB data from healthy adults 55-75 years of age (N=4) who received once-daily 3 mg nadolol and Compound 03-5 (1, 3, and 10 mg) on Day 1, Day 2 and Day 3. […] Data are presented as mean changes from the within-day pre-dose assessment.
In some embodiments, cognition may be evaluated using the Cambridge Neuropsychological Test Automated Battery (CANTAB) assessment (see, for example, Sahakian, et al., (1988). Brain. 111 (3): 695-718). Cognitive domains, such as attention, visuospatial working memory, episodic memory, speed of process and executive function can be assessed using the CANTAB Battery Test, which includes the following: • Reaction Time (RTI), • Paired Associates Learning (PAL), • Verbal Recognition Memory (VRM) Immediate Free Recall, • Rapid Visual Information Processing (RVP), • Spatial Working Memory (SWM), • Adaptive Tracking, and • VRM Delayed Free recall and Forced-Choice Recognition.
as §2

[4] = system: healthy subjects; test: Blood potassium, glucose and other peripheral effects of Compound 03-5 with or without nadolol
Text: Data are presented as individual observations for all available subjects.
as §1

[5] = system: healthy subjects; test: Adaptive tracking test (visuomotor coordination and vigilance); conditions: single dose of 160 μg clenbuterol
Text: Adaptive tracking measures visuomotor coordination and vigilance. In this test, the subject uses a joystick to move a small dot so that it stays within a continuously moving circle on a computer screen (Boland 1984). During the test, the speed of the circle is adjusted in response to the subject's ability to keep the dot in the circle, ensuring that the test is adapted to the individual subject. […] The improvement shown by subjects is in the same range as that seen with subjects treated with the acetylcholinesterase inhibitor donepezil, which is in clinical use for the treatment of mild to moderate AD (Groeneveld 2016).

[6] = system: healthy subjects; test: ASL MRI cerebral perfusion before and after a single dose in healthy subjects (Example 3)
Method: The data are plotted as change from baseline in cerebral blood flow in different regions of the brain.
Six healthy subjects aged 44-52 were treated with a single dose of […]. The Baseline vs. post-dose paired t-tests results: p=0.019. The color scale is shown in the middle and indicates cerebral blood flow with low values in red and high values in yellow.
In a clinical study, healthy subjects were administered doses of clenbuterol ranging from 20 to 160 μg and ASL MM was conducted prior to and after dosing with an objective to ascertain whether this neuroimaging method enables the detection of a clinically relevant CNS signal.
In a region of interest (ROI) analysis focusing on the hippocampus, which is well understood to be affected in neurodegenerative disorders, a single dose of 80 μg of clenbuterol causes a robust increase in perfusion (see FIG. 7). […] Taken together with other cohorts in which ASL MM was conducted, a clear dose response relationship is seen between dose of clenbuterol and cerebral perfusion (FIG. 8). […] Our hypothesis is that by improving cerebral perfusion, particularly in areas of the brain that are relevant for symptoms that are commonly found in neurodegenerative diseases such as PD and AD, the administration of a β-AR agonist (such as a β-agent) will have a positive effect on clinically relevant symptoms such as memory and cognition.

[7] = system: patients; test: Cerebral blood flow relative to baseline after a single dose in patients (Example 1)
[8] = clenbuterol doses of 80 and 160 μg

SMILES: CC(C)NCC(O)COc1cccc2[nH]ccc12 (stereo not shown) [pindolol]
- effect on the VVLT [1]: detrimental effect

SMILES: CC(C)(C)NCC(O)c1ccc(O)c(CO)c1 (stereo not shown) [salbutamol]
- effect on the VVLT [1]: positive effects

SMILES: CC(C)(C)NC[C@H](O)c1cccc(C#N)n1 [Compound 03-5, (S)-6-(2-(tert-butylamino)-1-hydroxyethyl)picolinonitrile]
- mean maximum increase in heart rate ([2]; 6 mg Compound 03-5 after pre-administration of 1 mg nadolol): 7 beats per minute
- performance in the CANTAB cognition battery [3]: improvements in performance in the CANTAB cognition battery
- hypokalemia (blood potassium levels) ([4]; Compound 03-5 monotherapy 0.3 mg-6 mg, Cohorts A1-A5): Dose-dependent increases in hypokalemia

SMILES: CC(C)(C)NCC(O)c1cc(Cl)c(N)c(Cl)c1 (stereo not shown) [clenbuterol]
- cognition as measured by adaptive tracking and word recall ([5]; healthy subjects, preliminary data): improves cognition
- performance in adaptive tracking (percent time dot kept within moving circle) [5]: improved adaptive tracking; also recorded: performance in adaptive tracking improves
- increase in hippocampal perfusion, on average ([6]; 6 healthy subjects aged 44 to 52, single dose of 80 μg clenbuterol, hippocampus ROI): 25%
- cerebral perfusion increase as measured by CBF ([6]; clenbuterol dose of 40 μg): minimal increase
- cerebral perfusion increase as measured by CBF ([6]; clenbuterol doses below 30 μg): do not produce significant cerebral perfusion increases
- global perfusion (ASL MRI) [6, 8]: robust, global increase in perfusion
- improvement in perfusion in brain areas relevant to the neuropathology of neurodegenerative disorders [6, 8]: ~25%
- cerebral perfusion (ASL MRI) ([6]; healthy subjects, single dose of 160 μg clenbuterol): robust global increase in cerebral perfusion
- cerebral blood flow (CBF) relative to baseline ([7]; single dose of clenbuterol 160 μg): robust global increase in cerebral blood flow; also recorded: positive increase in cerebral blood flow
- cerebral blood flow (CBF) relative to baseline ([7]; single dose of clenbuterol 160 μg and nadolol 5 mg): robust global increase in cerebral blood flow
- cerebral blood flow (CBF) relative to baseline ([7]; single dose of clenbuterol ranging from 30 to 160 μg, tracked over 3 days): robust global increase in cerebral blood flow
- effect on the VVLT [1]: positive effects

SMILES: CC(C)(C)NCC(O)COc1cccc2c1CC(O)C(O)C2 (stereo not shown) [nadolol]
- effect of nadolol on peripheral effects of Compound 03-5 on heart rate, glucose, potassium, tachycardia, tremor and palpitations ([2]; Cohort D1, pre-administered nadolol 1 mg up to 40 mg, Compound 03-5 3-12 mg): blocked the peripheral effects
- effect of nadolol on Compound 03-5 increase in heart rate and other peripheral effects including hyperglycemia and hypokalemia ([2]; Cohort D1, pre-administration of 1 mg nadolol, Compound 03-5 orally up to 6 mg): substantially attenuated
- effect of nadolol on peripheral effects of Compound 03-5 on heart rate, etc. ([2]; Cohort D2, pre-administered nadolol 3 mg, Compound 03-5 1-10 mg): similarly blocked the peripheral effects
- effect of nadolol on Compound 03-5 hypokalemia ([4]; nadolol 1-40 mg, Cohorts D1 and D2): attenuation of hypokalemia
- effect of nadolol on effects of Compound 03-5 on blood glucose and potassium, tachycardia, tremor and palpitations ([4]; pre-administration of 1 mg nadolol, 6 mg Compound 03-5): Concomitant attenuation
